Reference: patent US20180147206A1, “ACTIVATION OF NEURONAL STORE-OPERATED CALCIUM ENTRY PATHWAY FOR THE TREATMENT OF ALZHEIMER'S DISEASE” (The Board of Regents of the University of Texas System, priority 2015, published 2018)

Legend:
[1] = test system: mushroom spines of hippocampal neurons; assay: Dendritic spine analysis in primary hippocampal neural cultures; format: cell-based, mouse; conditions: for mushroom spine loss: 30 nM for 16 hours
Experimental: FIGS. 4A-E. NSN21778 and Hyperforin rescue synaptic nSOC and mushroom spine loss in AD hippocampal neurons. (FIG. 4A) Chemical structure of NSN21778 and Hyperforin. (FIG. 4B) Time-course of GCaMP5.3 fluorescence signal changes in the spines of wild-type, PS1KI and APPKI hippocampal neurons. The time of extracellular Ca^2+ re-addition is indicated by a black bar above the traces. 100 μM DHPG was added 50 sec prior to Ca^2+ re-addition. The results are shown for control (CON) neurons and for neurons pretreated with 300 nM NSN21778 (+NSN) or 300 nM Hyperforin (+Hyp) for 30 min as indicated. For each experimental group individual spine (grey) and average (red) fluorescence traces are shown. (FIG. 4C) The average nSOC spine peak amplitude is shown for each group of cells shown on panel B. The mean AF/Fo signals for each group and presented as mean±SE (n≥45 spines). ***, p <0.001. (FIG. 4D) Confocal images of wild-type, PS1KI and APPKI hippocampal neurons transfected with TD-Tomato and fixed at DIV15-16. The images are shown for control neurons (CON) and for neurons treated with 30 nM NSN21778 (+NSN) or 30 nM Hyperforin (+Hyp) for 16 hours prior to fixation. Scale bar is 10 μm. (FIG. 4E) The average fraction of mushroom spines for each group of cells shown on FIG. 4D is presented as mean±SE (n≥18 neurons). ***, p <0.001.
FIGS. 5A-E. TRPC6 is a molecular target for NSN21778 and Hyperforin. (FIGS. 5A-B) Time course of Fura-2 Ca^2+ signals is shown for HEK293 cells transfected with EGFP plasmid (GFP) or combination of EGFP and TRPC6 plasmids (TRPC6). Cells were incubated in ACSF media containing 2 mM Ca^2+. In experiments shown in FIG. 5B, cells were moved to modified ACSF media containing 0.1 mM Ca^2+ for 2 min and then returned to the media containing 2 mM Ca^2+ with addition of 100 μM OAG. The time of addition of 1 μM Hyperforin (Hyp) or NSN21778 (NSN) is indicated by red bars above the Fura-2 traces. For each experimental group individual spine (grey) and average (red) fluorescence traces are shown. (FIG. 5C) The average Ca^2+ influx peak is shown for experiments presented on FIGS. 5A-B as mean±SE (n≥81). (FIG. 5D) Confocal images of wild-type and PS1KI hippocampal neurons transfected with TD-Tomato and fixed at DIV15-16. The neurons were infected with lentiviruses encoding control RNAi (siCtrl), RNAi against TRPC6 (siT6) or RNAi against Orai2 (siO2). The images are shown for no drug treated neurons (CON) and for neurons treated with 30 nM NSN21778 (+NSN) or 30 nM Hyperforin (+Hyp) for 16 hours prior to fixation. Scale bar is 10 μm. No drug treated group of wild-type and PS1KI neurons is from the same experiment as shown on FIG. 2A-J. (FIG. 5E) The average fraction of mushroom spines for each group of cells shown on panel A is presented as mean±SE (n≥19 neurons). ***, p <0.001.
Dendritic Spine Analysis in Primary Hippocampal Neural Cultures. The hippocampal cultures of PS1KI, APPKI and WT mice were established from postnatal day 0-1 pups and maintained in culture as the inventors described previously [Zhang, 2010 #5733]. For assessment of synapse morphology, hippocampal cultures were transfected with TD-Tomato plasmid at DIV7 using the calcium phosphate method and fixed (4% formaldehyde, 4% sucrose in PBS, pH 7.4) at DIV15-16. A Z-stack of optical section was captured using 100× objective with a confocal microscope (Carl Zeiss Axiovert 100M with LSM510). 18-20 cultured neurons from three batches of cultures were used for quantitative analysis per genotype. Quantitative analysis for dendritic spines was performed by using NeuronStudio software package [Rodriguez, 2008 #6276]. To classify the shape of neuronal spines in culture, the inventors adapted an algorithm from published method [Rodriguez, 2008 #6276]. In classification of spine shapes the inventors used the following cutoff values: aspect ratio for thin spines (AR_thin(crio))=2.5, head to neck ratio (HNR(crit))=1.4, and head diameter (HD(crit))=0.5 μm. […]

[2] = Stability in CD-1 mouse plasma; format: in vitro ADME; conditions: commercial CD-1 mouse plasma; 2 μM
Experimental: FIGS. 12A-D. NSN21778 in vitro metabolism stability, in vivo plasma pharmacokinetics, and side effect on body weight (Related to FIGS. 7A-G). (FIG. 12A) The metabolic stability of NSN21778 was evaluated in vitro after incubation with commercial liver S9 fractions in the presence of phase I (NADPH regenerating system) cofactors. Compound levels were determined by LC-MS/MS. Additionally, the stability of NSN21778 in the presence of commercial CD-1 mouse plasma was measured. (FIG. 12B) NSN21778 was dosed i.p. at 10 mg/kg to female CD-1 mice. Levels of NSN21778 in plasma and brain were evaluated by LC-MS/MS. (FIG. 12C) WTGFP, PS1KIGFP and APPKIGFP mice body weight after i.p. administrated with control solution or 10 mg/kg NSN21778 for 10 weeks. Data presented as mean±SE (n=5 mice). (FIG. 12D) Body weight gained for various treatments.
In vitro metabolism assays. Female ICR/CD-1 mouse S9 fractions were purchased from Celsis/In Vitro Technologies (Baltimore, Md.). 25 μl (0.5 mg) of S9 protein was added to a 15 ml glass screw cap tube. […] The supernatant was analyzed by LC-MS/MS. Stability in commercial mouse CD-1 plasma (Bioreclamation, Westbury, N.Y.) was measured in a similar fashion. […] Reactions were quenched with methanol as above and supernatants evaluated by LC-MS/MS. Compound half-life was determined by the method of substrate depletion as described (McNaney et al., 2008).

CC(=O)Nc1ccc(CCNc2ncnc3ccc(N)cc23)cc1 [NSN21778, N-{4-[2-(6-Amino-quinazolin-4-ylamino)-ethyl]-phenyl}-acetamide]
mushroom spines ([1]; PS1KI and APPKI neurons, 30 nM for 16 hr): complete rescue
mushroom spine loss ([1]; PS1KI cultures infected with control RNAi lentiviruses): rescued mushroom spine loss
mushroom spine loss ([1]; PS1KI hippocampal neurons following knockdown of TRPC6 or Orai2): failed to rescue mushroom spine loss
mushroom spine loss ([1]; wild-type neurons with knockdown of TRPC6 or Orai2): failed to rescue
fraction of mushroom spines ([1]; wild-type neurons, 30 nM for 16 hr): no significant effect
stability in plasma [2]: stable
